Measured values: patent US20130344008A1, “NONCARIOUS MATERIAL AND ANTICARIOUS AGENT CONTAINING RARE SUGAR” (priority 2006, published 2013)

Columns and labels:
Format in all cases: cell-based, Streptococcus mutans
[1] = test system: S. mutans strain (JCM5075); experiment: Example 3: pH of S. mutans culture in BHI broth with test substance after 48-hour culturing; settings: 10% test substance; for pH: BHI broth, after 48-hour culturing
Description: Allitol and D-sorbose were used to assay the actions thereof against S. mutans. Allitol and D-sorbose were supplied from the Rare Sugar Research Center, the National University Corporation Kagawa University. The S. mutans strain (JCM5075) was plated in a Brain Heart Infusion broth containing a 10% test substance, to measure the pH of the liquid culture after 48-hour culturing. As a control, 1% sucrose and 10% Xylitol were used.

S. mutans strain JCM5075 = experiment: Example 1: optical density and pH of S. mutans JCM5075 cultures in BHI broth with rare sugars, with or without sucrose; settings: for pH 0 hour later / pH 6 hours later / pH 8 hours later / pH 12 hours later / pH 24 hours later / Optical density (OD) 12 hours later / suppression of OD increase compared with no addition: BHI broth; for Optical density (OD) 12 hours later: OD600; for suppression of the pH reduction: 24 hours later, also with 1% sucrose addition; for suppression of OD increase compared with no addition: FIG. 2 / Table 1
Description: S. mutans strains characteristically form insoluble glucan on addition of sucrose, to generate acids and reduce the pH of the culture medium, which is considered to cause decalcification of teeth on dental surface to form decayed teeth (the reason why the strains are designated bacteria causing decayed teeth). JCM 5075 of S. mutans strains and the Brain Heart Infusion (BHI) broth were used to assay the optical density (the increase of the number of the bacterial cells) and the pH change in individual rare sugar solutions with or without sucrose added. As the rare sugars, there were used D-fructose, L-fructose, D-sorbose, L-sorbose, D-psicose, L-psicose, D-tagatose and L-tagatose. The rare sugars used were supplied from the Rare Sugar Research Center, the National University Corporation Kagawa University.
The strain JCM5075 thawed from −80° C. stock was cultured for 48 hours, and was adjusted to OD 0.3. 100 μl of the resulting culture was added to each 2-ml portion of the BHI broths under individual conditions, to assay the optical density and the pH 24 hours later (observation with naked eyes and absorbance: OD600).
After collecting a part of the liquid culture and centrifuging the culture, the pH of the resulting supernatant was measured with a pH meter. The results are shown in Table 2 (0, 6, 8, 12 and 24 hours after the addition of the bacteria to the BHI broth) and FIG. 3.

[2] = test system: S. mutans strain MT 8148 (JCM5175); experiment: Example 2: bacterial growth (OD 660 nm) and pH of S. mutans culture in phenol red broth with 1% test substance; settings: PRB broth, 37° C., 48 hours later
Description: D-Psicose and L-psicose were used to assay the actions thereof against S. mutans. D-Psicose and L-psicose were supplied from the Rare Sugar Research Center, the National University Corporation Kagawa University. The S. mutans strain MT 8148 (JCM5175) was plated in a Brain Heart Infusion broth supplemented with agar for culturing at 37° C. for 48 hours. The liquid culture was inoculated in a fresh Brain Heart Infusion broth, for culturing at 37° C. for 24 hours. The liquid culture was inoculated in a phenol red broth (PRB broth) containing a test substance at 1%, for culturing at 37° C.; the bacterial growth (absorbance at 660 nm: OD) and the pH were assayed 48 hours later. Asa control, glucose, fructose, sucrose and Xylitol were used. After culturing for a given period of time, additionally, the optical density of apart of the liquid culture was measured with an absorptiometer (OD 660 nm).

[3] = 10% test substance + 1% sucrose

OC[C@@H](O)[C@H](O)[C@@H](O)CO [Xylitol, reference compound]
pH [1]: 6.0
pH change 24 hours later (in words) (S. mutans strain JCM5075; 1% sucrose, or 10% Xylitol+1% sucrose, or 10% fructose+1% sucrose, FIG. 3): highly inclined to acidity
pH 0 hour later (S. mutans strain JCM5075; 5% test substance + 1% sucrose): 7.3
pH 6 hours later (S. mutans strain JCM5075; 5% test substance + 1% sucrose): 7.2
pH 8 hours later (S. mutans strain JCM5075; 5% test substance + 1% sucrose): 7.2
pH 12 hours later (S. mutans strain JCM5075; 5% test substance + 1% sucrose): 7.1
pH 24 hours later (S. mutans strain JCM5075; 5% test substance + 1% sucrose): 4.9
pH 0 hour later (S. mutans strain JCM5075; 5% test substance, no sucrose): 7.3
pH 6 hours later (S. mutans strain JCM5075; 5% test substance, no sucrose): 7.2
pH 8 hours later (S. mutans strain JCM5075; 5% test substance, no sucrose): 7.2
pH 12 hours later (S. mutans strain JCM5075; 5% test substance, no sucrose): 7.2
pH 24 hours later (S. mutans strain JCM5075; 5% test substance, no sucrose): 6.4
pH 0 hour later (S. mutans strain JCM5075; [3]): 7.3
pH 6 hours later (S. mutans strain JCM5075; [3]): 7.2
pH 8 hours later (S. mutans strain JCM5075; [3]): 7.2
pH 12 hours later (S. mutans strain JCM5075; [3]): 7.2
pH 24 hours later (S. mutans strain JCM5075; [3]): 5.1
Optical density (OD) 12 hours later (S. mutans strain JCM5075; 10% test substance): 0.046
pH 0 hour later (S. mutans strain JCM5075; 10% test substance, no sucrose): 7.4
pH 6 hours later (S. mutans strain JCM5075; 10% test substance, no sucrose): 7.2
pH 8 hours later (S. mutans strain JCM5075; 10% test substance, no sucrose): 7.2
pH 12 hours later (S. mutans strain JCM5075; 10% test substance, no sucrose): 7.2
pH 24 hours later (S. mutans strain JCM5075; 10% test substance, no sucrose): 6.5

OC[C@@H](O)[C@@H](O)[C@@H](O)[C@@H](O)CO [Allitol]
pH [1]: 5.6
pH ([1]; listed as allitol): ≥ 5.5

O=C(CO)[C@H](O)[C@@H](O)[C@@H](O)CO [L-fructose]
pH [2]: 4.0
OD ([2]; bacterial growth, absorbance at 660 nm): 0.20
pH 0 hour later (S. mutans strain JCM5075; 5% test substance + 1% sucrose): 7.3
pH 6 hours later (S. mutans strain JCM5075; 5% test substance + 1% sucrose): 7.2
pH 8 hours later (S. mutans strain JCM5075; 5% test substance + 1% sucrose): 7.2
pH 12 hours later (S. mutans strain JCM5075; 5% test substance + 1% sucrose): 7.2
pH 24 hours later (S. mutans strain JCM5075; 5% test substance + 1% sucrose): 5.0
pH 0 hour later (S. mutans strain JCM5075; 5% test substance, no sucrose): 7.4
pH 6 hours later (S. mutans strain JCM5075; 5% test substance, no sucrose): 7.2
pH 8 hours later (S. mutans strain JCM5075; 5% test substance, no sucrose): 7.2
pH 12 hours later (S. mutans strain JCM5075; 5% test substance, no sucrose): 7.2
pH 24 hours later (S. mutans strain JCM5075; 5% test substance, no sucrose): 4.7
pH 0 hour later (S. mutans strain JCM5075; [3]): 7.3
pH 6 hours later (S. mutans strain JCM5075; [3]): 7.2
pH 8 hours later (S. mutans strain JCM5075; [3]): 7.2
pH 12 hours later (S. mutans strain JCM5075; [3]): 7.2
pH 24 hours later (S. mutans strain JCM5075; [3]): 6.7
Optical density (OD) 12 hours later (S. mutans strain JCM5075; 10% test substance): 0.037
pH 0 hour later (S. mutans strain JCM5075; 10% test substance, no sucrose): 7.3
pH 6 hours later (S. mutans strain JCM5075; 10% test substance, no sucrose): 7.2
pH 8 hours later (S. mutans strain JCM5075; 10% test substance, no sucrose): 7.2
pH 12 hours later (S. mutans strain JCM5075; 10% test substance, no sucrose): 7.2
pH 24 hours later (S. mutans strain JCM5075; 10% test substance, no sucrose): 6.5
suppression of the pH reduction (S. mutans strain JCM5075; FIG. 3): pH reduction was suppressed
suppression of OD increase compared with no addition (S. mutans strain JCM5075): suppression of OD increase was observed

O=C(CO)[C@H](O)[C@@H](O)[C@H](O)CO [D-sorbose]
assimilability with the S. mutans strain ([1]; 48-hour culturing): low assimilability
pH [1]: 5.0
pH 0 hour later (S. mutans strain JCM5075; 5% test substance + 1% sucrose): 7.3
pH 6 hours later (S. mutans strain JCM5075; 5% test substance + 1% sucrose): 7.2
pH 8 hours later (S. mutans strain JCM5075; 5% test substance + 1% sucrose): 7.2
pH 12 hours later (S. mutans strain JCM5075; 5% test substance + 1% sucrose): 7.2
pH 24 hours later (S. mutans strain JCM5075; 5% test substance + 1% sucrose): 5.0
pH 0 hour later (S. mutans strain JCM5075; 5% test substance, no sucrose): 7.4
pH 6 hours later (S. mutans strain JCM5075; 5% test substance, no sucrose): 7.2
pH 8 hours later (S. mutans strain JCM5075; 5% test substance, no sucrose): 7.2
pH 12 hours later (S. mutans strain JCM5075; 5% test substance, no sucrose): 7.2
pH 24 hours later (S. mutans strain JCM5075; 5% test substance, no sucrose): 5.5
pH 0 hour later (S. mutans strain JCM5075; [3]): 7.3
pH 6 hours later (S. mutans strain JCM5075; [3]): 7.2
pH 8 hours later (S. mutans strain JCM5075; [3]): 7.2
pH 12 hours later (S. mutans strain JCM5075; [3]): 7.2
pH 24 hours later (S. mutans strain JCM5075; [3]): 6.9
Optical density (OD) 12 hours later (S. mutans strain JCM5075; 10% test substance): 0.102
pH 0 hour later (S. mutans strain JCM5075; 10% test substance, no sucrose): 7.3
pH 6 hours later (S. mutans strain JCM5075; 10% test substance, no sucrose): 7.2
pH 8 hours later (S. mutans strain JCM5075; 10% test substance, no sucrose): 7.2
pH 12 hours later (S. mutans strain JCM5075; 10% test substance, no sucrose): 7.2
pH 24 hours later (S. mutans strain JCM5075; 10% test substance, no sucrose): 6.9
suppression of the pH reduction (S. mutans strain JCM5075; FIG. 3): pH reduction was suppressed
suppression of OD increase compared with no addition (S. mutans strain JCM5075): suppression of OD increase was observed
